Data reported in patent US20190076406A1, “METHODS AND COMPOSITIONS FOR TREATING CONDITIONS ASSOCIATED WITH ANGIOGENESIS USING A VASCULAR ADHESION PROTEIN-1 (VAP-1) INHIBITOR” (MASSACHUSETTS EYE & EAR INFIRMARY, priority 2007, published 2019).

How the values were obtained:
ICAM-1 = assay: ELISA of ICAM-1 in RPE-choroid complex after laser injury; assay type: in vivo, rat; settings: 3 days after laser injury; 0.3 mg/kg daily i.p.; mean±SEM
Protocol: (§1) Brown-Norway rats were anesthetized with 0.2-0.3 ml of a 50:50 mixture of 100 mg/ml Ketamine and 20 mg/ml Xylazine. Pupils were dilated with 5.0% Phenylephrine and 0.8% Tropicamide. CNV was induced with a 532 nm laser (Oculight GLx, Iridex, Mountain View, Calif.). Six laser spots (150 mW, 100 μm, 100 msec) were placed in each eye using a slit-lamp delivery system and a cover glass as a contact lens. Production of a bubble at the time of laser confirmed the rupture of the Bruch's membrane.
To block VAP-1, a specific VAP-1 inhibitor, Compound II described above, was used (R-tech Ueno, Ltd., Tokyo, Japan). […]
The RPE-choroid complex was carefully isolated from eyes 3 days after photocoagulation and placed in 300 μl of lysis buffer supplemented with protease inhibitors and sonicated. The lysate was centrifuged at 15,000 rpm for 15 minutes at 4° C. and the levels of TNF-α, monocyte chemotactic protein (MCP)-1, and intercellular adhesion molecule (ICAM)-1 were determined with rat TNF-α (BD bioscience), MCP-1 (BD bioscience) and ICAM-1 (R&D Systems, Minneapolis, Minn.) enzyme-linked immunosorbent assay (ELISA) kits according to the manufacturers' protocols. Total protein concentration was determined using a Bio-Rad Protein Assay Kit (Bio-Rad Laboratories Hercules, Calif.) and dilutions of bovine serum albumin (Bio-Rad Laboratories) as standards.

[1] = tested on: IL-1β-induced corneal angiogenesis in BALB/c mice; assay: Leukocyte infiltration in IL-1β-implanted cornea (immunostaining); assay type: in vivo, mouse; settings: 0.3 mg/kg daily i.p.
Protocol: BALB/c mice were anesthetized by intrapcritoneal (i.p.) injection of pentobarbital sodium (60 mg/kg). Hydron pellets (0.3 μl) containing 30 ng mouse IL-1β (401-ML; R&D Systems) were prepared and implanted into the corneas. Pellets were positioned 1 mm from the corneal limbus. Implanted eyes were treated with Bacitracin ophthalmic ointment (E. Fougera & Co.) to prevent infection.
To block VAP-1, mice received daily i.p. injections of a specific VAP-1 inhibitor, Compound II (R-tech Ueno Ltd., Tokyo, Japan) as described above. A daily dose of 0.3 mg/kg was administered at day 0 and continued until the sixth day after implantation. Two, four and six days after implantation, digital images of the corneal vessels were obtained and recorded using OpenLab software version 2.2.5 (Improvision Inc.) with standardized illumination and contrast and were saved onto disks. The quantitative analysis of new vessel growth in the mouse corneas was performed using Scion Image software (version 4.0.2; Scion Corp.).
Mice were sacrificed under deep anesthesia with pentobarbital sodium (60 mg/kg i.p.). The eyes were harvested, snap-frozen in optimal cutting temperature (OCT) compound (Sakura Finetechnical) and 10 μm sections were prepared, air-dried and fixed in cold acetone for 10 min. The sections were blocked with nonfat dried-milk (M7409; Sigma) for 10 minutes and stained with anti-CD11b mAb (1:100, 550282; BD Pharmingen), anti-Gr-1 mAb (1:100, 550282; BD Pharmingen) or anti-F4/80 mAb (1:100, MCA497G; Scrotec). After an overnight incubation, sections were washed and stained for 20 min. with secondary Abs, FITC-conjugated goat anti-rat (1:100, AP136F; Chemicon International).

[2] = tested on: laser-induced CNV in Brown-Norway rats; assay: Macrophage (ED-1 positive cell) infiltration in CNV lesions; assay type: in vivo, rat; settings: 3 days after laser injury; vs vehicle; n=4, p<0.05
Protocol: as §1
To block VAP-1, a specific VAP-1 inhibitor, Compound II described above, was used (R-tech Ueno, Ltd., Tokyo, Japan). After laser injury, the inhibitor (0.3 mg/kg BW) was administered to the animals by daily i.p. injections. As a control, some animals received the same regimen for the vehicle solution alone.
At 1, 3, and 7 days after laser injury and treatment with either VAP-1 inhibitor or vehicle solution, animals were perfused with 200 ml of PBS/kg BW under deep anesthesia. […] The photographs of CNV lesions were taken, and the numbers of ED-1-positive cells were counted. To obtain a quantitative index of macrophage numbers in CNV lesions, an optical density plot of the selected area was generated by a histogram graphing tool in the Photoshop image analysis software (version 6.0; Adobe Systems, Mountain View, Calif.), as described in the literature (for example, Sakurai et al. (2003) IOVS 44: 3578-85). […]

CC(=O)Nc1nc(CCc2ccc(NC(=N)NN)cc2)c(Cc2ccc(S(C)(=O)=O)cc2)s1 [Compound II]
ICAM-1 protein level in RPE-choroid complex (ICAM-1): 57 ± 2 ng/mg
infiltration of CD11b(+) cells in cornea ([1]; 3 days after pellet implantation): effectively inhibited
number of F4/80(+) cells in cornea ([1]; IL-1β-implanted cornea): less than in vehicle-treated cornea or untreated cornea
number of Gr-1(+) cells in cornea ([1]; IL-1β-implanted cornea): less than in vehicle-treated cornea or untreated cornea
reduction of number of accumulated macrophages (ED-1 positive cells) in CNV lesions [2]: 41%
